Laboratory results as given in paper PMC12248599, “Exploring the Bioavailability of Red Grape Skin Extract Polyphenols: A Caco-2 Cell Model Study” (Foods, 2025).
Values joined by “and” are separate entries in the source; they are usually repeats but may differ in a detail not shown here. Identical values can stand only once. Marks after values point to notes of the source that are not given here. One block for each molecule: values may come before it.

What was measured:
[1] = test system: Caco-2 cells; details: cited from earlier work
[2] = test system: Caco-2 cell monolayer; assay: Caco-2 monolayer transport (bioavailability) study, AB and BA directions; type: in vitro ADME, Homo sapiens; details: for TE (%) transport efficiency: after 180 min
Description: (§1) A reversed phase C18 column (Luna 5 μm C18(2) 100 Å, LC Column 250 × 4.6 mm, Phenomenex) was used to separate the polyphenols at a flow rate of 0.7 mL/min with an injection volume of 60 µL. The detection was carried out at 520 nm for anthocyanins (M3G, D3G and Pet3G), at 328 nm for CA, at 356 nm for flavonols (Q3G, K3Gal and K3G) and at 280 nm for GA and SA. The mobile phases were (A) acetonitrile 100% and (B) water 0.1% trifluoroacetic acid (v/v). The gradient was programmed as follows: 10% A 0 min, 10–80% A (0–20 min), 80–100% A (20–25 min), 100% A (25–30 min); 10% A (30–35 min) and 10% A (35–40 min). Every polyphenol was quantified using the corresponding reference standard calibration curve. Each of the quantified phenolic compound concentration was expressed as mg/mL
(§2) For the transport experiment Caco-2 cells were cultured at a density of 4 × 10^4 cells/cm^2 in Transwell inserts (12 mm i.d., 1.12 cm^2 growth area, 0.4 µm mean pore size polycarbonate membranes, Corning Inc., Milwaukee, WI, USA) placed in 12-well plates. Caco-2 cells were grown in DMEM in an incubator at 37 °C in a humidified atmosphere containing 5% CO2.
(§3) Bioavailability studies were performed in triplicate after 21 days of cell growth. Only inserts with stable TEER values higher than ≥300 Ω cm^2 were considered acceptable to perform the bioavailability study. For that purpose, DMEM media was removed, the monolayer was washed with PBS and HBSS was supplied to the cells.
(§4) Likewise, the GSE stock solution was diluted in HBSS medium to prepare GSE solutions S1 and S2. GSE solutions S1 and S2 had concentrations of 15 mg/mL and 22 mg/mL, respectively. These concentrations were established considering previous studies with grape pomace extracts that concluded that intestinal concentrations of 1–2% (w/v) show potential bioactivities and are safe to be used as a food ingredient.
(§5) The apical side represents the intestinal lumen and the basolateral side represents the bloodstream. Each sample (100 µL) was immediately acidified with 1M HCl to a final concentration of 0.007 M and subsequently frozen at −20 °C until analysis by HPLC (according to the method described in Section 2.5). Each experiment was carried out on 3 individual wells. The transport efficiency (TE) percentage was calculated according to Equation (2):Transport efficiency (%) = (C/C0) × 100(2) where, C is the polyphenol concentration at the acceptor side over time and C0 is the initial concentration at the donor side. TE values were calculated for the nine polyphenols identified in the grape skin extract.
(§6) The apparent permeability coefficient (Papp) of the polyphenols in GSE was calculated for apical to basolateral side (AB) and basolateral to apical side (BA) flux studies according to Equation (3):Papp (cm/s) = (dQ/dt) × (VR/AC0)(3) where, dQ/dt is the permeability rate which means the steady-state linear rate of change of concentration (mg/L) per second (s) at the acceptor side; A is the surface area of the cell monolayer (1.12 cm^2). C0 is the initial concentration at the donor side (mg/L) at t = 0 s and VR is the volume of the solution of the acceptor side (mL).
(§7) The efflux ratio (ER) of the polyphenol was assessed by calculating the Equation (4):ER = Papp (BA)/Papp (AB)(4) where, Papp (BA) is the apparent permeability coefficient of the polyphenol from basolateral to apical side and Papp (AB) is the apparent permeability coefficient from apical to basolateral side. ER is a measure of the relative contributions of active and passive transport to bi-direction flux across the cell monolayer.

[3] = as above; type: in vitro ADME, Homo sapiens; details: human
Description: as §1, §2, §3, §4, §5, §6, §7

[4] = AB experiment, S1 (15 mg/mL GSE), 0 to 180 min
[5] = AB experiment, S2 (22 mg/mL GSE), 0 to 180 min
[6] = AB experiment, acceptor side, S2 (22 mg/mL GSE)
[7] = AB experiment, donor side, S1 (15 mg/mL GSE)
[8] = AB experiment, donor side, S2 (22 mg/mL GSE)
[9] = BA experiment, acceptor side, S1 (15 mg/mL GSE)
[10] = BA experiment, acceptor side, S2 (22 mg/mL GSE)
[11] = BA experiment, donor side, S1 (15 mg/mL GSE)
[12] = BA experiment, donor side, S2 (22 mg/mL GSE)

reduction in concentration on the apical (donor) side [2, 4]: 75 ± 2% | reduction in concentration on the apical (donor) side [2, 5]: 58 ± 3% | TE (%) transport efficiency ([2]; AB experiment, S2 (22 mg/mL GSE)): 1.08 ± 0.01% | Basolateral Side 180 min ([2]; AB experiment, acceptor side, S1 (15 mg/mL GSE)): undetectable | Basolateral Side 75 min [2, 6]: 0.12 ± 0.01 ^b mg/L | Basolateral Side 90 min [2, 6]: 0.13 ± 0.01 ^c,d mg/L | Basolateral Side 115 min [2, 6]: 0.14 ± 0.01 ^d,c mg/L | Basolateral Side 180 min [2, 6]: 0.15 ± 0.01 ^c mg/L | Apical Side 0 min [2, 7]: 6.1 ± 0.3 mg/L and 6.1 ± 0.3 ^a mg/L | Apical Side 75 min [2, 7]: 4.5 ± 0.2 ^b mg/L | Apical Side 90 min [2, 7]: 3.2 ± 0.1 ^c mg/L | Apical Side 115 min [2, 7]: 2.26 ± 0.06 ^d mg/L | Apical Side 180 min [2, 7]: 1.53 ± 0.04 mg/L and 1.53 ± 0.04 ^c mg/L | Apical Side 0 min [2, 8]: 14 ± 1 ^a mg/L | Apical Side 75 min [2, 8]: 11.6 ± 0.9 ^b mg/L | Apical Side 90 min [2, 8]: 9.2 ± 0.9 ^c mg/L | Apical Side 115 min [2, 8]: 7.2 ± 0.9 ^d mg/L | Apical Side 180 min [2, 8]: 6.0 ± 0.8 mg/L and 6.0 ± 0.8 ^d mg/L | detection at the acceptor side ([2]; AB experiments, basolateral side): detected | TE (%) transport efficiency ([2]; BA experiment, S2 (22 mg/mL GSE)): 1.73 ± 0.04% | Apical Side 75 min [2, 9]: 0.19 ± 0.02 ^a,b mg/L | Apical Side 90 min [2, 9]: 0.23 ± 0.02 ^b,c mg/L | Apical Side 115 min [2, 9]: 0.28 ± 0.02 ^c mg/L | Apical Side 180 min [2, 9]: 0.33 ± 0.02 ^c mg/L | Apical Side 75 min [2, 10]: 0.18 ± 0.01 ^b mg/L | Apical Side 90 min [2, 10]: 0.22 ± 0.01 ^c mg/L | Apical Side 115 min [2, 10]: 0.26 ± 0.01 ^d mg/L | Apical Side 180 min [2, 10]: 0.30 ± 0.01 ^c mg/L | Basolateral Side 0 min [2, 11]: 10.4 ± 0.7 ^a mg/L | Basolateral Side 75 min [2, 11]: 9.7 ± 0.6 ^b mg/L | Basolateral Side 90 min [2, 11]: 9.1 ± 0.6 ^c mg/L | Basolateral Side 115 min [2, 11]: 8.5 ± 0.6 ^d mg/L | Basolateral Side 180 min [2, 11]: 8.0 ± 0.6 ^c mg/L | Basolateral Side 0 min [2, 12]: 17.5 ± 0.4 ^a mg/L | Basolateral Side 75 min [2, 12]: 16.4 ± 0.4 ^b mg/L | Basolateral Side 90 min [2, 12]: 15.4 ± 0.3 ^c mg/L | Basolateral Side 115 min [2, 12]: 14.5 ± 0.3 ^c,d mg/L | Basolateral Side 180 min [2, 12]: 13.7 ± 0.2 ^c mg/L | detection at the acceptor side ([2]; BA experiments, apical side): detected | efflux ratio at 180 min, 22 mg/mL ([3]; Caco-2, Papp (BA)/Papp (AB), S2 (22 mg/mL GSE), read-out: ER (efflux ratio)): > 1 | Papp A→B at 180 min, 22 mg/mL ([3]; Caco-2, apical to basolateral, S2 (22 mg/mL GSE)): 15 ± 1 ×10⁻⁶ cm/s | Papp B→A at 180 min, 15 mg/mL ([3]; Caco-2, basolateral to apical, S1 (15 mg/mL GSE)): 33 ± 2 ×10⁻⁶ cm/s | Papp B→A at 180 min, 22 mg/mL ([3]; Caco-2, basolateral to apical, S2 (22 mg/mL GSE)): 18 ± 1 ×10⁻⁶ cm/s
SMILES: COc1cc(-c2[o+]c3cc(O)cc(O)c3cc2O[C@@H]2O[C@H](CO)[C@@H](O)[C@H](O)[C@H]2O)cc(OC)c1O [M3G, malvidin-3-O-glucoside]
transepithelial transport M3G efficiency ([1]; Caco-2 cells, rabbiteye blueberry extract, depending on initial extract concentration, after 2 h): 6.93–7.31% | M3G transport efficiency ([1]; after 240 min): 0.35%

detection at the acceptor side of the Caco-2 cell monolayer ([2]; AB and BA experiments): not detected | reduction in concentration on the apical (donor) side [2, 4]: 67 ± 4% | reduction in concentration on the apical (donor) side [2, 5]: 55 ± 2% | Apical Side 0 min [2, 7]: 0.70 ± 0.03 mg/L and 0.70 ± 0.03 ^a mg/L | Apical Side 75 min [2, 7]: 0.54 ± 0.03 ^b mg/L | Apical Side 90 min [2, 7]: 0.42 ± 0.03 ^c mg/L | Apical Side 115 min [2, 7]: 0.32 ± 0.03 ^d mg/L | Apical Side 180 min [2, 7]: 0.23 ± 0.03 mg/L and 0.23 ± 0.03 ^c mg/L | Apical Side 0 min [2, 8]: 1.48 ± 0.06 mg/L and 1.48 ± 0.06 ^a mg/L | Apical Side 75 min [2, 8]: 1.21 ± 0.04 ^b mg/L | Apical Side 90 min [2, 8]: 1.03 ± 0.03 ^c mg/L | Apical Side 115 min [2, 8]: 0.82 ± 0.02 ^d mg/L | Apical Side 180 min [2, 8]: 0.67 ± 0.03 mg/L and 0.67 ± 0.03 ^c mg/L | reduction in concentration on the basolateral (donor) side ([2]; BA experiment, S2 (22 mg/mL GSE), 0 to 180 min): 23 ± 1% | Basolateral Side 0 min [2, 11]: 0.84 ± 0.08 ^a mg/L | Basolateral Side 75 min [2, 11]: 0.72 ± 0.07 ^a,b mg/L | Basolateral Side 90 min [2, 11]: 0.63 ± 0.07 ^b,c mg/L | Basolateral Side 115 min [2, 11]: 0.53 ± 0.06 ^c,d mg/L | Basolateral Side 180 min [2, 11]: 0.44 ± 0.06 ^d mg/L | Basolateral Side 0 min [2, 12]: 1.1 ± 0.1 ^a mg/L | Basolateral Side 75 min [2, 12]: 1.10 ± 0.09 ^a,b mg/L | Basolateral Side 90 min [2, 12]: 1.03 ± 0.09 ^a,b,c mg/L | Basolateral Side 115 min [2, 12]: 0.96 ± 0.08 ^b,c mg/L | detection at the acceptor side ([2]; BA experiments, apical side): detected
SMILES: COc1cc(C(=O)O)cc(OC)c1O [SA, syringic acid]
Basolateral Side 180 min [2, 12]: 0.90 ± 0.08 mg/L and 0.901 ± 0.08 ^c mg/L
